Test results as given in patent publication US11090310B2, “Methods and compositions for treating hypertriglyceridemia” (THE REGENTS OF THE UNIVERSITY OF CALIFORNIA, priority 2016, dated 2021).
Numbering of substitutions follows the chain as printed. In names and notes the source's numbering stands.

Tests used:
[1] = Plasma triglyceride levels of patients with GPIHBP1 autoantibodies under drug treatment (case follow-up); assay type: in vivo, human; settings: for effect of treatment on plasma triglycerides / hypertriglyceridemia (in words): case reports of single patients (111, 157, 164)
[2] = tested on: autoantibodies; settings: in patients, literature reports; cited from earlier work
[3] = target: T1, V5-tagged human LPL (Homo sapiens, UniProt P06858); test: Cell-based LPL-GPIHBP1 binding assay of GPIHBP1 variants; settings: transfected CHO pgsA-745 cells or HUVEC
T1 construct: made in house
T1 sequence (P06858 28-475): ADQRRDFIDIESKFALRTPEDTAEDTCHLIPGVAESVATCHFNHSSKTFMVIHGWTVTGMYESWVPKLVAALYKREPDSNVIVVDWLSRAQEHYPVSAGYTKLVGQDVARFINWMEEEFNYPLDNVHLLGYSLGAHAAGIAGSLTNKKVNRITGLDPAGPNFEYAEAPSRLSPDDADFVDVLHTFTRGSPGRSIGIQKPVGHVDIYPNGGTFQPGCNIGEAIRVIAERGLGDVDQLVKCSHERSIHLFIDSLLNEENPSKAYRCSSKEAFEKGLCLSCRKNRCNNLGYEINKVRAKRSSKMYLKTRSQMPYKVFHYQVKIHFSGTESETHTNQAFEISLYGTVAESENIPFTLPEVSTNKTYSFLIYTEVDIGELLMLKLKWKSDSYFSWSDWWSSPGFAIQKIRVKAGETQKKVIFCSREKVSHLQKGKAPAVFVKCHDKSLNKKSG
Protocol: Expression vectors for S-protein-tagged wild-type (wt) GPIHBP1, GPIHBP1-G175R, and GPIHBP1-W109S (or the empty vector) were transfected into CHO pgsA-745 cells or human umbilical vein endothelial cells (HUVEC). After 1 day, the cells were washed three times in PBS and incubated for 1 h at 4° C. with V5-tagged human LPL (900 ng/well). Then the cells were washed six times in PBS, and cell lysates were collected in RIPA buffer (Sigma) containing a protease inhibitor cocktail (Roche). Proteins were separated by SDS-PAGE, and western blots were performed under reducing conditions with a goat antibody against the S-protein tag (Abcam, 5 μg/ml), followed by an IRdye680-donkey anti-goat IgG (LI-COR, 1:2000) and an IRdye800-V5 antibody (1:500).

Molecule: COc1c(C)c2c(c(O)c1C/C=C(\C)CCC(=O)OCCN1CCOCC1)C(=O)OC2 [Mycophenolate mofetil]
- effect of treatment on plasma triglycerides / hypertriglyceridemia (in words) [1]: failed to lower the plasma triglyceride levels
- Follow-up (mg/dl): follow-up plasma triglyceride levels after treatment ([1]; single patients: 101 (prednisolone 10 mg/day, salazosulfapyridine 1000 mg/day), 111, 164 (mycophenolate mofetil 750 + 500 mg/day, hydroxychloroquine 100 mg/day)): 2,573-4,085 mg/dl

Molecule: Belimumab
- reduction of autoantibodies [2]: reduce autoantibodies

Molecule: Rituximab
- reduction of autoantibodies [2]: reducing the production of autoantibodies in patients

Molecule: n−3 fatty acids
- effect of treatment on plasma triglycerides / hypertriglyceridemia (in words) [1]: resistant

B1: GPIHBP1-G175R: GPIHBP1 with G175R missense substitution in the carboxyl-terminal hydrophobic domain (protein)
chain: QTQQEEEEEDEDHGPDDYDEEDEDEVEEEETNRLPGGRSRVLLRCYTCKSLPRDERCNLTQNCSHGQTCTTLIAHGNTESGLLTTHSTWCTDSCQPITKTVEGTQVTMTCCQSSLCNVPPWQSSRVQDPTG
modifications: left off: small tags and cut ends
notes: GPIHBP1 with G175R missense substitution in the carboxyl-terminal hydrophobic domain
- LPL binding by GPIHBP1 variant expressed on cells [3]: binds LPL avidly

B2: GPIHBP1-W109S: mutant GPIHBP1 which lacks the ability to bind LPL, used as control (protein)
chain: B1 chain with W89S
modifications: left off: small tags and cut ends
- LPL binding by GPIHBP1 variant expressed on cells [3]: lacks the ability to bind LPL
